Measured values taken from US10537563B2, “Methods for treating ocular disease using inhibitors of CSF-1R” (NOVARTIS AG, priority 2016, dated 2020).

Columns and labels:
[1] = tested on: VEGF; assay: Interaction with VEGF versus CSF-1 receptor signaling; details: at concentrations where the signaling of the CSF-1 receptor is strongly or completely inhibited
[2] = tested on: choroidal neovascularization; assay: Laser-induced choroidal neovascularization model, CNV area; format: in vivo, mouse; details: oral daily, 30, 100 or 200 mg/kg, dose dependent; tissues harvested day 7
Procedure: To investigate the effects of CSF-1R inhibition on ocular angiogenesis and inflammation, Compound (Ia) was assessed in a rodent model of laser-induced choroidal neovascularization (methods below) for effect on blood vessel growth and cellular infiltration after a laser injury. Compound (Ia) was assessed either as a monotherapy or in combination with a suboptimal dose of a VEGF antibody.
(§1) In one experiment, Compound (Ia) or vehicle was dosed orally at 30, 100 or 200 mg/kg starting about 1 hour before laser and continued administration daily until the day before tissue harvest.
(§2) In a second experiment, mice were dosed daily with 50 mg/kg of Compound (Ia) and with i.p. injections of a mouse anti-VEGF antibody at a dose of 0.3 mg/kg at day 0, 2 and 4. Other groups of mice in the experiment were dosed with monotherapy of Compound (Ia) or the anti-VEGF antibody at higher doses.
Mouse pupils were dilated with one drop (˜40 μL) of 1% cyclopentolate. Just before anesthesia, pupil dilation was maximized with an additional drop of phenylephrine (usually 10% but occasionally 2.5% depending upon availability). […]
Analysis of neovascularization was completed on tissues harvested 7 days after laser photocoagulation. […] CNV area was quantified using a semi-automated analysis program (Axiovision software version 4.5, Carl Zeiss Microscopy) that outlined the fluorescent blood vessels. […]

[3] = tested on: subretinal Iba1+ cells; assay: Cellular infiltration assay in laser CNV model, subretinal Iba1+ microglia; format: in vivo, mouse
Procedure: as §1, §2
(§3) Cellular infiltration into the retina, the PEC or the CNV lesion was assessed after laser application. Eyes were fixed with 4% Paraformaldehyde for ˜90 minutes. After fixation, whole eyes were dissected into the retina and PEC. […]
(§4) Iba1+ cells in the PEC peripheral to the CNV lesion were counted using a different semi-automatic MatLab code. […] The operator is then presented with masked, randomized images and allowed the functionality to remove miscellaneous fluorescence (false positive) and add missed cells (false negative) to the analysis. Confluent microglia cells and CNV lesions were excluded from the quantification analysis. In a study, each assessed condition consisted of 10 eyes from 5 mice and would typically yield 10 data points. […] F4/80+ cells in the retina were counted using a similar semi-automatic MatLab code and followed the same procedure as above. […]

[4] = tested on: retinal F4/80+ cells; assay: Cellular infiltration assay in laser CNV model, retinal F4/80+ macrophages; format: in vivo, mouse
Procedure: as §1, §2, §3, §4

[5] = tested on: macrophages in areas around the ciliary body; assay: Macrophages around the ciliary body in CX3CR1-GFP reporter mice; format: in vivo, mouse; details: salt of Compound (Ia), oral 200 mg/kg daily for 14 days
Procedure: To investigate the effects of CSF-1R inhibition on inflammation, Compound (Ia) was assessed in CX3CR1-GFP reporter mice (which report on macrophage and microglia). The presence of macrophages in areas around the ciliary body in the front of the eye (but not in the cornea) was examined and confirmed by anti-GFP immunohistochemistry staining (see panels (a) and (b) in FIG. 4). The arrow-indicated dots are the positive stained macrophage cells).
In this experiment, mice was treated with a salt of Compound (Ia) orally at 200 mg/kg daily for 14 days and immediately examined for the presence of macrophages (see panels (c) and (d) in FIG. 4).

| interaction with VEGF [1] | SMILES | reduction in CNV area compared to vehicle [2] [%] | reduction in subretinal Iba1+ cells (microglia) ([3]; 200 mg/kg oral) | microglia in the subretinal space ([3]; 50 and 200 mg/kg) | reduction in retinal F4/80+ cells (macrophages) ([4]; 200 mg/kg oral) | macrophages in the retina ([4]; 50 and 200 mg/kg) | macrophages in areas around the ciliary body, day 14 ([5]; day 14) | macrophages in areas around the ciliary body, day 21 ([5]; day 21) | macrophages in areas around the ciliary body, day 44 ([5]; day 44) |
| --- | --- | --- | --- | --- | --- | --- | --- | --- | --- |
| not to interact strongly | CNC(=O)c1cc(Oc2ccc3nc(N[C@H]4CCCC[C@@H]4O)sc3c2)ccn1 [Compound (Ib), 4-((2-(((1S,2S)-2-hydroxycyclohexyl)amino)benzo[d]thiazol-6-yl)oxy)-N-methylpicolinamide] | – | – | – | – | – | – | – | – |
| not to interact strongly | CNC(=O)c1cc(Oc2ccc3nc(N[C@@H]4CCCC[C@H]4O)sc3c2)ccn1 [Compound (Ia), 4-((2-(((1R,2R)-2-hydroxycyclohexyl)amino)benzo[d]thiazol-6-yl)oxy)-N-methylpicolinamide] | 75 | 66-99% | significantly reduced | 83-84% | significantly reduced | depleted | started to return | almost back to steady state |
